{"source": "ChEMBL document CHEMBL1221165", "about": "“Actin is the primary cellular receptor of bistramide A” (Nat Chem Biol, 2005)", "key": {"RBL-2H3 [1]": {"tested_on": "RBL-2H3", "assay": "Induction of GFP-PKCdelta translocation from cytoplasm to plasma membrane in RBL2H3 cells at 200 nM over 30 mins by fluorescent imaging", "format": "functional, cell-based", "settings": "Rattus norvegicus"}, "RBL-2H3 [2]": {"tested_on": "RBL-2H3", "assay": "Induction of GFP-PKCdelta translocation from cytoplasm to nuclear in RBL2H3 cells at 200 nM over 30 mins by fluorescent imaging", "format": "functional, cell-based", "settings": "Rattus norvegicus"}, "HCT-116 [3]": {"tested_on": "HCT-116", "assay": "Cytotoxicity against human HCT116 cells assessed as cell viability after 48 hrs", "format": "functional, cell-based", "settings": "HCT-116, 48 h"}, "PtK2": {"tested_on": "PtK2", "assay": "Dissolution of filamentous actin in […] PtK2 cells at 20 nM within 15 mins by using FITC-phallodin staining by fluorescent microscopy", "format": "cell-based"}, "HL-60 [4]": {"tested_on": "HL-60", "assay": "Cytotoxicity against human HL60 cells assessed as growth inhibition after 48 hrs", "format": "functional", "settings": "HL-60, 48 h"}, "CA46 [5]": {"tested_on": "CA46", "assay": "Antiproliferative activity against human CA46 cells assessed as mitotic cells at 1 uM after 48 hrs by visual examination (Rbv = 3%)", "format": "functional"}, "[6]": {"target": "T1, Protein kinase C delta type (Homo sapiens, UniProt Q05655)", "assay": "Induction of human recombinant PKCdelta assessed as phosphorylation of amphiphilic peptide substrate at 0.1 uM in presence of 10 uM phosphatidylserine relative to control"}, "HL-60 [7]": {"tested_on": "HL-60", "assay": "Cell cycle arrest in human HL60 cells assessed as accumulation at G2/M phase at 0.5 uM after 48 hrs (Rbv = 11%)", "format": "functional"}, "PC-3 [8]": {"tested_on": "PC-3", "assay": "Cytotoxicity against human PC3 cells assessed as growth inhibition after 48 hrs", "format": "functional", "settings": "PC-3, 48 h"}, "[9]": {"assay": "Binding affinity to rabbit skeletal muscle globular actin by isothermal calorimetric method", "format": "tissue-based, Oryctolagus cuniculus, Muscle tissue"}, "A549 [10]": {"tested_on": "A549", "assay": "Dissolution of filamentous actin in human A549 cells at 50 to 150 nM by using FITC-phallodin staining by fluorescent microscopy", "format": "cell-based", "settings": "TDE = time-dependent effect"}, "HCT-116 [11]": {"tested_on": "HCT-116", "assay": "Cytotoxicity against human HCT116 cells assessed as growth inhibition after 48 hrs", "format": "functional", "settings": "HCT-116, 48 h"}, "A549 [12]": {"tested_on": "A549", "assay": "Cytotoxicity against human A549 cells assessed as growth inhibition after 48 hrs", "format": "functional", "settings": "A549, 48 h"}, "RBL-2H3 [13]": {"tested_on": "RBL-2H3", "assay": "Induction of GFP-PKCdelta translocation from cytoplasm to nuclear in RBL2H3 cells at 5 uM over 30 mins by fluorescent imaging", "format": "functional, cell-based", "settings": "Rattus norvegicus"}, "Oryctolagus cuniculus": {"species_on_record": "Oryctolagus cuniculus", "assay": "(§1) Binding affinity to rabbit skeletal muscle monomeric actin by isothermal calorimetric method", "format": "tissue-based", "settings": "Muscle tissue"}, "MCF7 [14]": {"tested_on": "MCF7", "assay": "Cell cycle arrest in human MCF7 cells assessed as accumulation at G1 phase at 1 uM after 48 hrs (Rbv = 73%)", "format": "functional"}, "CA46 [15]": {"tested_on": "CA46", "assay": "Cell cycle arrest in human CA46 cells assessed as accumulation at G2/M phase at 1 uM after 48 hrs", "format": "functional, cell-based"}, "PC-3 [16]": {"tested_on": "PC-3", "assay": "Dissolution of filamentous actin in human PC3 cells at 20 nM within 15 mins by using FITC-phallodin staining by fluorescent microscopy", "format": "functional, cell-based"}, "HL-60 [17]": {"tested_on": "HL-60", "assay": "Cell cycle arrest in human HL60 cells assessed as accumulation at G1 phase at 0.5 uM after 48 hrs (Rbv = 38%)", "format": "functional"}, "A549 [18]": {"tested_on": "A549", "assay": "Inhibition of globular actin polymerization at steady state in human A549 cells assessed as change in fluorescence intensity", "format": "cell-based"}, "[19]": {"target": "Protein kinase C delta type (Rattus norvegicus) (UniProt P09215)", "sequence (P09215 whole entry)": "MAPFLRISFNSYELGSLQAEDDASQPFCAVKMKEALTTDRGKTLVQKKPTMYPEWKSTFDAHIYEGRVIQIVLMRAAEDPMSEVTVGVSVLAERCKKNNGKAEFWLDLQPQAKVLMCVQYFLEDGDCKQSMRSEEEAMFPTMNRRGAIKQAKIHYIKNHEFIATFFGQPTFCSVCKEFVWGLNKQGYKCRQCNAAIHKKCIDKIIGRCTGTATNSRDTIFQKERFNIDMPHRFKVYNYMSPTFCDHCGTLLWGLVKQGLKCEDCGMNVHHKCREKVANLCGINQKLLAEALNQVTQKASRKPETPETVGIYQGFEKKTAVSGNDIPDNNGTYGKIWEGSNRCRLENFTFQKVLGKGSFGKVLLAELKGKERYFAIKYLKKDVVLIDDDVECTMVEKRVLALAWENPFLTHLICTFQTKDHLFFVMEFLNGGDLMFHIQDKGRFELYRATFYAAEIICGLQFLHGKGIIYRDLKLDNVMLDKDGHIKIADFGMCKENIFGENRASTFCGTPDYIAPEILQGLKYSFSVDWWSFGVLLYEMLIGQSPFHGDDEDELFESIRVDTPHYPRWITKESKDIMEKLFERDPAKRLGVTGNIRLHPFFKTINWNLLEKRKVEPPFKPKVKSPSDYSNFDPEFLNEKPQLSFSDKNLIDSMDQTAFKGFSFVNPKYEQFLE", "assay": "Induction of rat recombinant PKCdelta activity"}, "CA46 [20]": {"tested_on": "CA46", "assay": "Cell cycle arrest in human CA46 cells assessed as accumulation at G0/G1 phase at 1 uM after 48 hrs", "format": "functional, cell-based"}, "HL-60 [21]": {"tested_on": "HL-60", "assay": "Cell cycle arrest in human HL60 cells assessed as accumulation at S phase at 0.5 uM after 48 hrs (Rbv = 44%)", "format": "functional"}, "MCF7 [22]": {"tested_on": "MCF7", "assay": "Cell cycle arrest in human MCF7 cells assessed as accumulation at S phase at 1 uM after 48 hrs (Rbv = 18%)", "format": "functional"}, "[23]": {"target": "T1, Protein kinase C delta type", "assay": "Induction of human recombinant PKCdelta assessed as phosphorylation of amphiphilic peptide substrate at 1 uM in presence of 10 uM phosphatidylserine relative to control"}, "PC-3 [24]": {"tested_on": "PC-3", "assay": "Cell cycle arrest in human PC3 cells assessed as accumulation at S phase at 1 uM after 48 hrs (Rbv = 18%)", "format": "functional"}, "A549 [25]": {"tested_on": "A549", "assay": "Increase in dissolution of filamentous actin in human A549 cells at 120 to 450 nM by using FITC-phallodin staining by fluorescent microscopy", "format": "cell-based"}, "[26]": {"assay": "Depolymerization of Ca2+ filamentous actin in human A549 cells at 450 nM by using FITC-phallodin staining", "format": "cell-based"}, "PC-3 [27]": {"tested_on": "PC-3", "assay": "Cell cycle arrest in human PC3 cells assessed as accumulation at G1 phase at 1 uM after 48 hrs (Rbv = 58%)", "format": "functional"}, "CA46 [28]": {"tested_on": "CA46", "assay": "Antiproliferative activity against human CA46 cells assessed as binucleated cells at 1 uM after 48 hrs by visual examination (Rbv = 6%)", "format": "functional"}, "A549 [29]": {"tested_on": "A549", "assay": "Cytotoxicity against human A549 cells assessed as cell viability after 48 hrs", "format": "functional, cell-based", "settings": "A549, 48 h"}, "HL-60 [30]": {"tested_on": "HL-60", "assay": "Cytotoxicity against human HL60 cells assessed as cell viability after 48 hrs", "format": "functional, cell-based", "settings": "HL-60, 48 h"}, "[31]": {"assay": "Depolymerization of Mg2+ filamentous actin in human A549 cells at 450 nM by using FITC-phallodin staining", "format": "cell-based"}, "CHO-K1": {"tested_on": "CHO-K1", "assay": "Dissolution of filamentous actin in chinese hamster CHOK1 cells at 20 nM within 15 mins by using FITC-phallodin staining by fluorescent microscopy", "format": "cell-based", "settings": "Cricetulus griseus"}, "PC-3 [32]": {"tested_on": "PC-3", "assay": "Cytotoxicity against human PC3 cells assessed as cell viability after 48 hrs", "format": "functional, cell-based", "settings": "PC-3, 48 h"}, "MCF7 [33]": {"tested_on": "MCF7", "assay": "Cell cycle arrest in human MCF7 cells assessed as accumulation at G0/G1 phase at 1 uM after 48 hrs (Rbv = 74%)", "format": "functional"}, "A549 [34]": {"tested_on": "A549", "assay": "Dissolution of filamentous actin in human A549 cells after 1 hr by using FITC-phallodin staining by fluorescent microscopy", "format": "cell-based"}, "PC-3 [35]": {"tested_on": "PC-3", "assay": "Cell cycle arrest in human PC3 cells assessed as accumulation at G2/M phase at 1 uM after 48 hrs (Rbv = 19%)", "format": "functional"}, "MCF7 [36]": {"tested_on": "MCF7", "assay": "Cell cycle arrest in human MCF7 cells assessed as accumulation at G2/M phase at 1 uM after 48 hrs (Rbv = 7%)", "format": "functional"}, "[37]": {"target": "T1, Protein kinase C delta type", "assay": "Displacement of [3H]PDBu from human recombinant PKCdelta by competitive binding assay"}, "[38]": {"assay": "as §1", "format": "tissue-based, Oryctolagus cuniculus, Muscle tissue"}, "[39]": {"assay": "Inhibition of actin polymerization"}}, "note": "The source made the active and inactive calls. The calls are words filed in the database; no cut-off is given here."}
{"compound": "CCC/C=C/C=C/C(=O)O[C@H]1/C(=C/C(=O)OC)C[C@H]2C[C@H]([C@@H](C)O)OC(=O)C[C@H](O)C[C@@H]3C[C@H](OC(C)=O)C(C)(C)[C@](O)(C[C@@H]4C/C(=C/C(=O)OC)C[C@H](/C=C/C(C)(C)[C@]1(O)O2)O4)O3", "values": [{"measurement": "Activity", "setting": "RBL-2H3 [1]", "result": "Active"}, {"measurement": "Activity", "setting": "RBL-2H3 [2]", "result": "Active"}]}
{"compound": "C/C=C/C(=O)C[C@H]1CC[C@H](C)[C@H](CC(=O)NC[C@H](O)[C@H](C)C(=O)NCCC[C@H]2O[C@@]3(CCC[C@H](CC[C@H](C)/C=C(\\C)[C@H](C)O)O3)CC[C@@H]2C)O1", "note": "[BISTRAMIDE A]", "values": [{"measurement": "IC50", "setting": "HCT-116 [3]", "result": 0.437, "unit": "µM"}, {"measurement": "Activity", "setting": "PtK2", "result": "Active"}, {"measurement": "GI50", "setting": "HL-60 [4]", "result": 0.2, "unit": "µM"}, {"measurement": "Activity", "setting": "CA46 [5]", "result": 4, "unit": "%"}, {"measurement": "fold change (FC)", "setting": "[6]", "result": 4.5}, {"measurement": "Activity", "setting": "HL-60 [7]", "result": 27, "unit": "%"}, {"measurement": "GI50", "setting": "PC-3 [8]", "result": 0.005, "unit": "µM"}, {"measurement": "Kd", "setting": "[9]", "result": 0.007, "unit": "µM"}, {"measurement": "Activity", "setting": "A549 [10]", "result": "tde"}, {"measurement": "GI50", "setting": "HCT-116 [11]", "result": 0.2, "unit": "µM"}, {"measurement": "GI50", "setting": "A549 [12]", "result": 0.013, "unit": "µM"}, {"measurement": "Activity", "setting": "RBL-2H3 [13]", "result": "inactive"}, {"measurement": "Ka", "setting": "Oryctolagus cuniculus", "result": 1.46, "unit": "×10⁸ /M"}, {"measurement": "Activity", "setting": "MCF7 [14]", "result": 33, "unit": "%"}, {"measurement": "Activity", "setting": "CA46 [15]", "result": "Active"}, {"measurement": "Activity", "setting": "PC-3 [16]", "result": "Active"}, {"measurement": "Activity", "setting": "HL-60 [17]", "result": 18, "unit": "%"}, {"measurement": "inhibition", "setting": "A549 [18]", "result": "Dose-dependent effect"}, {"measurement": "Activity", "setting": "[19]", "result": "inactive"}, {"measurement": "Activity", "setting": "CA46 [20]", "result": "Active"}, {"measurement": "Activity", "setting": "HL-60 [21]", "result": 48, "unit": "%"}, {"measurement": "Activity", "setting": "MCF7 [22]", "result": 24, "unit": "%"}, {"measurement": "fold change (FC)", "setting": "[23]", "result": 3.8}, {"measurement": "Activity", "setting": "PC-3 [24]", "result": 14, "unit": "%"}, {"measurement": "Activity", "setting": "A549 [25]", "result": "Active"}, {"measurement": "Activity", "setting": "[26]", "result": "Active"}, {"measurement": "Activity", "setting": "PC-3 [27]", "result": 37, "unit": "%"}, {"measurement": "Activity", "setting": "CA46 [28]", "result": 48, "unit": "%"}, {"measurement": "IC50", "setting": "A549 [29]", "result": 0.063, "unit": "µM"}, {"measurement": "IC50", "setting": "HL-60 [30]", "result": "> 1", "unit": "µM"}, {"measurement": "Activity", "setting": "[31]", "result": "Active"}, {"measurement": "Activity", "setting": "CHO-K1", "result": "Active"}, {"measurement": "IC50", "setting": "PC-3 [32]", "result": 0.107, "unit": "µM"}, {"measurement": "Activity", "setting": "MCF7 [33]", "result": 33, "unit": "%"}, {"measurement": "Activity", "setting": "A549 [34]", "result": "Dose-dependent effect"}, {"measurement": "Activity", "setting": "PC-3 [35]", "result": 43, "unit": "%"}, {"measurement": "Activity", "setting": "MCF7 [36]", "result": 38, "unit": "%"}, {"measurement": "Ki", "setting": "[37]", "result": 27, "unit": "µM"}]}
{"compound": "C/C1=C/C(=O)O[C@@H]2C[C@@H](CC[C@H](C)/C=C\\C=C\\CC1)O[C@@](O)([C@@H]1CSC(=O)N1)C2", "note": "[LATRUNCULIN A]", "values": [{"measurement": "Kd", "setting": "[38]", "result": 0.17, "unit": "µM"}, {"measurement": "Kd", "setting": "[39]", "result": 0.2, "unit": "µM"}]}
